Assay results taken from patent publication US8106048B2, “Heterocyclic NF-κB inhibitors” (4SC AG, priority 2004, dated 2012).

system: A549-NF-κB-SEAP reporter cells; assay: Inhibition of NF-κB-induced inflammation: […] NINA Instant Assay, TNF-α stimulated SEAP reporter; type: cell-based; details: % inhibition classes
Description: For the determination of anti-inflammatory activity of the compounds the […]® NINA Instant Assay from Cell Culture Service GmBH was used. This assay is based on […] recombinant A549-NF-κB-SEAP reporter cells preceded in 96-well flat bottom plates. As the transfected reportergen for SEAP (secreted embryonic alkaline phosphatase) is under transcriptional control of a NF-κB-responsive element, the expression of this reporter is activated upon stimulation with TNF-α. SEAP secretion into the culture supernatant can be detected by the chemiluminescent substrate CSPD®. Test compounds that inhibit the NF-κB activation show reduced SEAP activity and reduced luminescent readout.
Following 18 h of reactivation at 37° C., 5% CO2 and 90% relative humidity, the cells were incubated with 0.01 up to 100 μM of test compound for 4.5 h before stimulation with 2 ng/ml TNF-α. After stimulation with TNF-α for 22 h endogenous phosphatases were inactivated and CSPD® substrate was supplied for 40 min. SEAP activity then was quantified by measuring luminescence as relative light units (RLU) using a Tecan Ultra reader. Each data point was recorded in quadruplicates and EC50 values were calculated via fitting function and the Microsoft Excel Solver.

Structure (SMILES)	Biological activity (inhibition in the NF-κB inflammation assay)
COc1nc(OC)nc(N2CCN(C(=O)c3csc(C4CCNCC4)n3)CC2)n1 [compound 152]	++ (“++” means 80-90%)
COc1ccc(N2CCC(c3nc(C(=O)N4CCN(c5cccc(C(F)(F)F)c5)CC4)cs3)CC2)c(OC)c1 [compound 153]	+ (“+” stands for 50-80% inhibition)
O=C(c1csc(C2CCN(c3ccc(OC(F)(F)F)cc3)CC2)n1)N1CCN(c2cccc(C(F)(F)F)c2)CC1 [compound 154]	+ (“+” stands for 50-80% inhibition)
O=C(c1csc(C2CCN(c3ccc(C(F)(F)F)cc3)CC2)n1)N1CCN(c2cccc(C(F)(F)F)c2)CC1 [compound 155]	+ (“+” stands for 50-80% inhibition)
O=C(c1csc(C2CCN(c3ccc4c(c3)OCO4)CC2)n1)N1CCN(c2cccc(C(F)(F)F)c2)CC1 [compound 156]	+ (“+” stands for 50-80% inhibition)
O=C(c1csc(C2CCN(c3ccc4c(c3)OCCO4)CC2)n1)N1CCN(c2cccc(C(F)(F)F)c2)CC1 [compound 157]	+ (“+” stands for 50-80% inhibition)
COc1ccccc1N1CCC(c2nc(C(=O)N3CCN(c4cccc(C(F)(F)F)c4)CC3)cs2)CC1 [compound 158]	+ (“+” stands for 50-80% inhibition)
COc1ccc(N2CCC(c3nc(C(=O)N4CCN(c5cccc(C(F)(F)F)c5)CC4)cs3)CC2)cc1OC [compound 159]	+ (“+” stands for 50-80% inhibition)
O=C(Cc1ccc(F)cc1)N1CCC(c2nc(C(=O)N3CCc4cc(O)c(O)cc4C3)cs2)CC1 [compound 160]	+ (“+” stands for 50-80% inhibition)
COc1cc2c(cc1OC)CN(C(=O)c1csc(C3CCN(C(=O)Cc4ccc(F)cc4)CC3)n1)CC2 [compound 161]	+ (“+” stands for 50-80% inhibition)
O=C(Cc1ccc(F)cc1)N1CCC(c2nc(C(=O)N3CCc4ccccc43)cs2)CC1 [compound 162]	+ (“+” stands for 50-80% inhibition)
O=C(Cc1ccc(F)cc1)N1CCC(c2nc(C(=O)N3CCc4ccccc4C3)cs2)CC1 [compound 163]	+ (“+” stands for 50-80% inhibition)
COc1cc(N2CCC(c3nc(C(=O)N4CCN(c5cccc(C(F)(F)F)c5)CC4)cs3)CC2)nc(OC)n1 [compound 164]	++ (“++” means 80-90%)
O=C(c1csc(C2CCN(Cc3ccccc3Br)CC2)n1)N1CCN(c2cccc(C(F)(F)F)c2)CC1 [compound 165]	+ (“+” stands for 50-80% inhibition)
N#Cc1ccc(CN2CCC(c3nc(C(=O)N4CCN(c5cccc(C(F)(F)F)c5)CC4)cs3)CC2)cc1 [compound 166]	+ (“+” stands for 50-80% inhibition)
O=C(c1csc(C2CCN(Cc3ccc(-c4ccccc4)cc3)CC2)n1)N1CCN(c2cccc(C(F)(F)F)c2)CC1 [compound 167]	+ (“+” stands for 50-80% inhibition)
O=C(c1csc(C2CCN(Cc3c(F)cccc3F)CC2)n1)N1CCN(c2cccc(C(F)(F)F)c2)CC1 [compound 168]	+ (“+” stands for 50-80% inhibition)
O=C(c1csc(C2CCN(Cc3ccc(C(F)(F)F)cc3)CC2)n1)N1CCN(c2cccc(C(F)(F)F)c2)CC1 [compound 169]	+ (“+” stands for 50-80% inhibition)
O=C(c1csc(C2CCN(Cc3ccc(F)cc3)CC2)n1)N1CCN(c2cccc(C(F)(F)F)c2)CC1 [compound 170]	+ (“+” stands for 50-80% inhibition)
O=C(c1csc(C2CCN(Cc3ccc(F)cc3Cl)CC2)n1)N1CCN(c2cccc(C(F)(F)F)c2)CC1 [compound 171]	+ (“+” stands for 50-80% inhibition)
O=C(c1csc(C2CCN(Cc3ccc(OC(F)(F)F)cc3)CC2)n1)N1CCN(c2cccc(C(F)(F)F)c2)CC1 [compound 172]	+ (“+” stands for 50-80% inhibition)
COc1cccc(CN2CCC(c3nc(C(=O)N4CCN(c5cccc(C(F)(F)F)c5)CC4)cs3)CC2)c1 [compound 173]	+ (“+” stands for 50-80% inhibition)
O=C(c1csc(C2CCN(Cc3ccc(Br)cc3)CC2)n1)N1CCN(c2cccc(C(F)(F)F)c2)CC1 [compound 174]	+ (“+” stands for 50-80% inhibition)

Structure (SMILES)	Biological activity (inhibition in the NF-κB inflammation assay)
O=C(c1csc(C2CCN(Cc3cc(C(F)(F)F)cc(C(F)(F)F)c3)CC2)n1)N1CCN(c2cccc(C(F)(F)F)c2)CC1 [compound 175]	+ (“+” stands for 50-80% inhibition)
COc1nc(OC)nc(N2CCC(c3nc(C(=O)N4CCN(c5cccc(C(F)(F)F)c5)CC4)cs3)CC2)n1 [compound 176]	+ (“+” stands for 50-80% inhibition)
O=C(c1csc(C2CCN(Cc3ccccc3)CC2)n1)N1CCN(c2cccc(C(F)(F)F)c2)CC1 [compound 177]	+ (“+” stands for 50-80% inhibition)
COc1cccc(N2CCC(c3nc(C(=O)N4CCN(c5cccc(C(F)(F)F)c5)CC4)cs3)CC2)c1 [compound 178]	+ (“+” stands for 50-80% inhibition)
COC(=O)C1Cc2ccc(O)cc2CN1C(=O)c1csc(C2CCN(C(=O)Cc3ccc(F)cc3)CC2)n1 (stereo not shown) [compound 179]	+ (“+” stands for 50-80% inhibition)
O=C(Cc1ccc(F)cc1)N1CCC(c2nc(C(=O)N3CCN(c4ccccc4)CC3)cs2)CC1 [compound 180]	+ (“+” stands for 50-80% inhibition)
O=C(Cc1ccc(F)cc1)N1CCC(c2nc(C(=O)N3CCC(n4nnc5cc(C(F)(F)F)ccc54)CC3)cs2)CC1 [compound 181]	+ (“+” stands for 50-80% inhibition)
O=C(Cc1ccc(F)cc1)N1CCC(c2nc(C(=O)N3CCC(n4nnc5ccccc54)CC3)cs2)CC1 [compound 182]	+ (“+” stands for 50-80% inhibition)
O=C(O)c1cccnc1C(=O)N1CCC(c2nc(C(=O)N3CCN(c4cccc(C(F)(F)F)c4)CC3)cs2)CC1 [compound 183]	+ (“+” stands for 50-80% inhibition)
O=C(O)c1ccc(C(=O)O)c(C(=O)N2CCC(c3nc(C(=O)N4CCN(c5cccc(C(F)(F)F)c5)CC4)cs3)CC2)c1 [compound 184]	+ (“+” stands for 50-80% inhibition)
O=C(O)c1ccccc1C(=O)N1CCC(c2nc(C(=O)N3CCN(c4cccc(C(F)(F)F)c4)CC3)cs2)CC1 [compound 185]	+ (“+” stands for 50-80% inhibition)
O=C(O)c1cccc(O)c1C(=O)N1CCC(c2nc(C(=O)N3CCN(c4cccc(C(F)(F)F)c4)CC3)cs2)CC1 [compound 186]	+ (“+” stands for 50-80% inhibition)
O=C(O)c1cc(Cl)c(Cl)cc1C(=O)N1CCC(c2nc(C(=O)N3CCN(c4cccc(C(F)(F)F)c4)CC3)cs2)CC1 [compound 187]	+ (“+” stands for 50-80% inhibition)
O=C(O)C1=C(C(=O)N2CCC(c3nc(C(=O)N4CCN(c5cccc(C(F)(F)F)c5)CC4)cs3)CC2)CCC1 [compound 188]	+ (“+” stands for 50-80% inhibition)
O=C(O)C1CCCCC1C(=O)N1CCC(c2nc(C(=O)N3CCN(c4cccc(C(F)(F)F)c4)CC3)cs2)CC1 (stereo not shown) [compound 189]	+ (“+” stands for 50-80% inhibition)
O=C(O)C1=C(C(=O)N2CCC(c3nc(C(=O)N4CCN(c5cccc(C(F)(F)F)c5)CC4)cs3)CC2)CCCC1 [compound 190]	+ (“+” stands for 50-80% inhibition)
O=C(O)C=CC(=O)N1CCC(c2nc(C(=O)N3CCN(c4cccc(C(F)(F)F)c4)CC3)cs2)CC1 [compound 191]	+ (“+” stands for 50-80% inhibition)
Cc1noc(C)c1S(=O)(=O)N1CCC(c2nc(C(=O)N3CCN(c4cccc(C(F)(F)F)c4)CC3)cs2)CC1 [compound 192]	+ (“+” stands for 50-80% inhibition)
O=C(c1csc(C2CCN(S(=O)(=O)c3c(F)c(F)c(F)c(F)c3F)CC2)n1)N1CCN(c2cccc(C(F)(F)F)c2)CC1 [compound 193]	+ (“+” stands for 50-80% inhibition)
O=C(c1csc(C2CCN(S(=O)(=O)c3cccs3)CC2)n1)N1CCN(c2cccc(C(F)(F)F)c2)CC1 [compound 194]	+ (“+” stands for 50-80% inhibition)
O=C(c1csc(C2CCN(S(=O)(=O)c3ccc(F)cc3Cl)CC2)n1)N1CCN(c2cccc(C(F)(F)F)c2)CC1 [compound 195]	+ (“+” stands for 50-80% inhibition)
O=C(c1csc(C2CCN(S(=O)(=O)c3ccccc3Br)CC2)n1)N1CCN(c2cccc(C(F)(F)F)c2)CC1 [compound 196]	+ (“+” stands for 50-80% inhibition)
O=C(c1csc(C2CCN(S(=O)(=O)c3c(Cl)nc4sccn34)CC2)n1)N1CCN(c2cccc(C(F)(F)F)c2)CC1 [compound 197]	+ (“+” stands for 50-80% inhibition)
